This series is described as follows: Crystalline and amorphous solubility of the substance. The series is classed as physicochemical. The conditions noted are these: water. Here is the method: The solubility of the substance in water may be measured using a conventional technique. For example, a saturated solution of the substance is prepared by adding an excess amount of the substance to water at 25° C. and allowing the solution to equilibrate for 48 hours. Excess solids are removed by centrifugation or filtration and the concentration of the substance in water is determined by a suitable analytical technique such as HPLC. Without wishing to be bound by theory, it is thought that the formation of the initial suspension of amorphous particles following combination of the first solution with the aqueous phase promotes the subsequent formation of a uniform dispersion of nano-crystalline particles during the subsequent sonication. […] It is thought that the presence of the dispersion of amorphous particles during the sonication provides a reservoir of material in solution for the crystallisation step and thereby maintains a high and constant level of super-saturation relative to the crystalline solubility because of the higher amorphous solubility. The high and relatively constant degree of supersaturation provided by the presence of the amorphous particles provides favorable conditions for the formation of a large number of primary nuclei upon application of the ultrasound to the dispersion of amorphous particles. […]

Like-named read-outs stand apart in the source and are kept apart here.

Regarding `CCOC(=O)C1=C(C)NC(C)=C(C(=O)OC)C1c1cccc(Cl)c1Cl` (centres unmarked) [felodipine], the solubility was 2 µM (25 °C, thermodynamic from solid, crystalline form, read-out: crystalline solubility) and ~24 µM (amorphous form, read-out: amorphous solubility).

The record behind these values is US7780989B2, “Process for the preparation of crystalline nano-particle dispersions” (AstraZeneca AB, priority 2002, dated 2010).
